Laboratory results reported in PubChem BioAssay AID588774 (The Scripps Research Institute Molecular Screening Center, 2011).
Calls of active or inactive are those of the source.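 How the source made its calls: active means target enzyme inhibited at least 50% at a set dose, and selective over every off-target enzyme by a set factor; inactive means weaker inhibition or too little selectivity.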

What was measured:
FAAH = test: pPAFAH inhibition and serine hydrolase selectivity, SAR follow-up, selectivity assay for pPAFAH inhibitor project, biochemical, gel-based, FP-Rh fluorescence, complex proteome, SAR compounds (AID 588774); settings: gel-based competitive ABPP, stronger effect = higher value;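 on inhibition: 0% = DMSO-only band intensity and 100% = blank gel background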
pPAFAH = test: as above; settings: gel-based competitive ABPP, anti-targets inhibited, at 10 µM
[1] = target: Monoglyceride lipase (Mus musculus) (UniProt O35678); test: as above; settings: gel-based competitive ABPP, MAGL, stronger effect = higher value
Monoglyceride lipase (Mus musculus), sequence (O35678 whole entry, looked up): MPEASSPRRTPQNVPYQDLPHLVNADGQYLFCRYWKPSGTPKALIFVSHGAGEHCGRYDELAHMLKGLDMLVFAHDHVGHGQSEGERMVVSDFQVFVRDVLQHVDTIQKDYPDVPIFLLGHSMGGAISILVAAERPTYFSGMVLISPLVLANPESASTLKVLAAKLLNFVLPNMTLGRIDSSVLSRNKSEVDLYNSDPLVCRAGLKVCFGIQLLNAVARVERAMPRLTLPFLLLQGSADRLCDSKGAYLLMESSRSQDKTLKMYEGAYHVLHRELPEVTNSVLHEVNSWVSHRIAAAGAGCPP

ABHD6 = test: as above; settings: gel-based competitive ABPP, stronger effect = higher value
LYPLA2 = test: as above; settings: gel-based competitive ABPP, stronger effect = higher value
[2] = target: Platelet-activating factor acetylhydrolase (Mus musculus) (UniProt Q60963); test: as above; settings: gel-based competitive ABPP, pPAFAH, stronger effect = higher value
Platelet-activating factor acetylhydrolase (Mus musculus), sequence (Q60963 whole entry, looked up): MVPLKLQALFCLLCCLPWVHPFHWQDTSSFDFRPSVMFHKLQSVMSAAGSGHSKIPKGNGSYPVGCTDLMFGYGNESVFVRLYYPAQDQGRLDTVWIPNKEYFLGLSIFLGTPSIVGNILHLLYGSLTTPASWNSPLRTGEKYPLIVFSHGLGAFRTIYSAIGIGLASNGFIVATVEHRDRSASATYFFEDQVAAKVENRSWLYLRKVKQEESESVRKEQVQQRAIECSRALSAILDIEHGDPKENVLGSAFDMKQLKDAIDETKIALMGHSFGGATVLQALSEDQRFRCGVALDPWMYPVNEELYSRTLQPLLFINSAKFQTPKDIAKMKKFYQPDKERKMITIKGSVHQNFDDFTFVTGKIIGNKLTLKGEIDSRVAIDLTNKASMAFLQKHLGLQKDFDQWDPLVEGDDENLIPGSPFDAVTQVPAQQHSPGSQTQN

MW 32 kDa = test: as above; settings: gel-based competitive ABPP, at 1 µM, stronger effect = higher value
MW 30 kDa = test: as above; settings: gel-based competitive ABPP, stronger effect = higher value
ABHD3 = test: as above; settings: gel-based competitive ABPP, stronger effect = higher value
[3] = as above; settings: gel-based competitive ABPP, at 10 µM
ABHD4 = ABHD4 (UniProt Q8VD66); test: as above; settings: gel-based competitive ABPP, stronger effect = higher value
ABHD4, sequence (Q8VD66 whole entry, looked up): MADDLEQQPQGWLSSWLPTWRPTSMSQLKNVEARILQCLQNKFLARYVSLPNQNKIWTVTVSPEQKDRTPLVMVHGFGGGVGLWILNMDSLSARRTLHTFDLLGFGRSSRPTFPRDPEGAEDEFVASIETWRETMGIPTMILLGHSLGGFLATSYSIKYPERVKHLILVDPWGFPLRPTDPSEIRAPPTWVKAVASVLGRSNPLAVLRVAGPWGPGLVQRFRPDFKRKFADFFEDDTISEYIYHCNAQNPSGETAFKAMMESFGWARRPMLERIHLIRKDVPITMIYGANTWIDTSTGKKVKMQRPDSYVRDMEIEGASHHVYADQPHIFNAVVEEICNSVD

LYPLA1 = test: as above; settings: gel-based competitive ABPP, stronger effect = higher value

Row | Compound | inhibition (FAAH; at 10 µM) | inhibition (FAAH; inhibition, at 0.1 µM) | inhibition (FAAH; inhibition, at 1 µM) | anti-target count (pPAFAH) | inhibition ([1]; at 10 µM) | inhibition ([1]; inhibition, at 1 µM) | inhibition (ABHD6; at 10 µM) | inhibition (ABHD6; inhibition, at 1 µM) | inhibition (LYPLA2; at 10 µM) | inhibition ([2]; at 10 µM) | inhibition ([2]; inhibition, at 0.1 µM) | inhibition ([2]; inhibition, at 1 µM) | inhibition (MW 30 kDa; at 1 µM) | inhibition (ABHD3; at 10 µM) | anti-target count ([3]; ABHD3, anti-targets inhibited) | anti-target count ([3]; ABHD4, anti-targets inhibited) | anti-target count ([3]; ABHD6, anti-targets inhibited) | anti-target count ([3]; FAAH, anti-targets inhibited) | anti-target count ([3]; LYPLA1, anti-targets inhibited) | anti-target count ([3]; LYPLA2, anti-targets inhibited) | also measured
1 | Cc1cc(N2CCN(C(=O)n3ncc(-c4ccc(Cl)c(Cl)c4)n3)CC2)c2ccccc2n1 | 88% (inactive) | 29% | 74% | 8 | 40% (inactive) | 26% | 61% (inactive) | 43% | 61% (inactive) | 100% | 97% | 98% | 36% | 100% | 8 | 8 | 8 | 8 | 8 | 8 | inhibition (ABHD6; inhibition, at 0.1 µM): 13%; inhibition (LYPLA2; inhibition, at 1 µM): 18%; inhibition (MW 32 kDa): 12%; inhibition (ABHD3; inhibition, at 0.1 µM): 69%; inhibition (ABHD3; inhibition, at 1 µM): 96%; anti-target count ([3]; MAGL, anti-targets inhibited): 8; inhibition (ABHD4; at 10 µM): 100%; inhibition (ABHD4; inhibition, at 0.1 µM): 69%; inhibition (ABHD4; inhibition, at 1 µM): 96%; inhibition (LYPLA1; at 10 µM): 84% (inactive); inhibition (LYPLA1; inhibition, at 1 µM): 24%
2 | Cc1cc(N2CCN(C(=O)n3ncc(-c4ccccc4)n3)CC2)c2ccccc2n1 | 83% | 63% | 82% | 9 | 58% (inactive) | 36% | 71% (inactive) | 54% | 99% (inactive) | 99% | 99% | 99% | 51% | 100% (inactive) | 9 | 9 | 9 | 9 | 9 | 9 | inhibition (LYPLA2; inhibition, at 1 µM): 55%; inhibition (MW 32 kDa): 43%; inhibition (ABHD3; inhibition, at 1 µM): 85%; anti-target count ([3]; MAGL, anti-targets inhibited): 9; inhibition (ABHD4; at 10 µM): 100% (inactive); inhibition (ABHD4; inhibition, at 1 µM): 85%; inhibition (LYPLA1; at 10 µM): 96% (inactive); inhibition (LYPLA1; inhibition, at 1 µM): 86%
3 | O=C(Oc1noc2cc(Cl)ccc12)N1CCCCC1 | 100% | 96% | 100% | 2 | 23% (inactive) | 13% | 46% (inactive) | 38% | 0% (inactive) | 100% | 82% | 85% | 40% | 0% (inactive) | 2 | 2 | 2 | 2 | 2 | 2 | inhibition (ABHD6; inhibition, at 0.1 µM): 20%; anti-target count ([3]; MAGL, anti-targets inhibited): 2; inhibition (ABHD4; at 10 µM): 0% (inactive); inhibition (LYPLA1; at 10 µM): 0% (inactive)
4 | COc1ccc(-c2cnn(C(=O)N3CCN(c4cc(C)nc5ccccc45)CC3)n2)cc1 | 86% | 60% | 83% | 8 | 45% (inactive) | 35% | 70% (inactive) | 58% | 95% (inactive) | 96% | 85% | 88% | 50% | 100% (inactive) | 8 | 8 | 8 | 8 | 8 | 8 | inhibition (ABHD6; inhibition, at 0.1 µM): 12%; inhibition (LYPLA2; inhibition, at 1 µM): 56%; inhibition (MW 32 kDa): 52%; inhibition (ABHD3; inhibition, at 1 µM): 86%; anti-target count ([3]; MAGL, anti-targets inhibited): 8; inhibition (ABHD4; at 10 µM): 100% (inactive); inhibition (ABHD4; inhibition, at 1 µM): 86%; inhibition (LYPLA1; at 10 µM): 92% (inactive); inhibition (LYPLA1; inhibition, at 0.1 µM): 4%; inhibition (LYPLA1; inhibition, at 1 µM): 74%
5 | Cc1cc(N2CCN(C(=O)n3ncc(-c4ccc(OC(F)(F)F)cc4)n3)CC2)c2ccccc2n1 | 92% (inactive) | 38% | 91% | 9 | 53% (inactive) | 35% | 74% (inactive) | 60% | 96% (inactive) | 100% | 100% | 100% | 44% | 100% | 9 | 9 | 9 | 9 | 9 | 9 | inhibition (ABHD6; inhibition, at 0.1 µM): 22%; inhibition (LYPLA2; inhibition, at 1 µM): 39%; inhibition (MW 32 kDa): 43%; inhibition (ABHD3; inhibition, at 0.1 µM): 75%; inhibition (ABHD3; inhibition, at 1 µM): 92%; anti-target count ([3]; MAGL, anti-targets inhibited): 9; inhibition (ABHD4; at 10 µM): 100%; inhibition (ABHD4; inhibition, at 0.1 µM): 75%; inhibition (ABHD4; inhibition, at 1 µM): 92%; inhibition (LYPLA1; at 10 µM): 100% (inactive); inhibition (LYPLA1; inhibition, at 1 µM): 51%
6 | O=C(N1CCOCC1)n1oc2cc(Cl)ccc2c1=O | 100% | 83% | 96% | 6 | 68% (inactive) | 53% | 79% (inactive) | 58% | 54% (inactive) | 98% | 98% | 98% | 43% | 0% (inactive) | 6 | 6 | 6 | 6 | 6 | 6 | inhibition ([1]; inhibition, at 0.1 µM): 36%; inhibition (ABHD6; inhibition, at 0.1 µM): 37%; inhibition (LYPLA2; inhibition, at 0.1 µM): 21%; inhibition (LYPLA2; inhibition, at 1 µM): 33%; inhibition (MW 30 kDa; at 0.1 µM): 31%; anti-target count ([3]; MAGL, anti-targets inhibited): 6; inhibition (ABHD4; at 10 µM): 0% (inactive); inhibition (LYPLA1; at 10 µM): 81% (inactive); inhibition (LYPLA1; inhibition, at 0.1 µM): 17%; inhibition (LYPLA1; inhibition, at 1 µM): 33%
